Measurements reported in article PMC8078842 (PLoS Neglected Tropical Diseases, 2021).

Assay: In situ brain/choroid plexus perfusion (10 or 30 minutes) with capillary depletion
Details: 30 min perfusion, not corrected for vascular space

Question: For [^3H(G)]pentamidine, which “RTISSUE/PLASMA% (mean ± SEM) of [^3H]pentamidine” value (from here on “RTISSUE/PLASMA% (mean ± SEM)”) (Cerebellum, 0.1% F68 + 15.7 nM pent) is on record?
Answer: 14.44 (± 2.47) %

Question: And the “RTISSUE/PLASMA% (mean ± SEM)” value (Cerebellum, 0.5% F68 + 15.7 nM pent)?
Answer: 17.28 (± 3.54) %

Question: And the “RTISSUE/PLASMA% (mean ± SEM)” value (Cerebellum, Control (15.7 nM pent))?
Answer: 12.92 (± 1.10) %

Question: And the “RTISSUE/PLASMA% (mean ± SEM)” value (Choroid plexus, 0.01% F68 + 15.7 nM pent)?
Answer: 835.26 (± 260.20) %

Question: And the “RTISSUE/PLASMA% (mean ± SEM)” value (Choroid plexus, 0.1% F68 + 15.7 nM pent)?
Answer: 944.85 (± 235.90) %

Question: What about the “RTISSUE/PLASMA% (mean ± SEM)” value (Choroid plexus, 0.5% F68 + 15.7 nM pent) of the same substance?
Answer: 1844.80 (± 493.51) %

Question: What about the “RTISSUE/PLASMA% (mean ± SEM)” value (Choroid plexus, Control (15.7 nM pent)) of the same substance?
Answer: 1241.60 (± 92.86) %

Question: What about the “RTISSUE/PLASMA% (mean ± SEM)” value (Corpus callosum, 0.01% F68 + 15.7 nM pent) of the same substance?
Answer: 2.02 (± 1.22) %

Question: What about the “RTISSUE/PLASMA% (mean ± SEM)” value (Corpus callosum, 0.1% F68 + 15.7 nM pent) of the same substance?
Answer: 9.47 (± 0.94) %

Question: What about the “RTISSUE/PLASMA% (mean ± SEM)” value (Corpus callosum, 0.5% F68 + 15.7 nM pent) of the same substance?
Answer: 15.72 (± 6.78) %

Question: What about the “RTISSUE/PLASMA% (mean ± SEM)” value (Corpus callosum, Control (15.7 nM pent)) of the same substance?
Answer: 8.19 (± 1.97) %

Question: What about the “RTISSUE/PLASMA% (mean ± SEM)” value (Frontal cortex, 0.01% F68 + 15.7 nM pent) of the same substance?
Answer: 9.00 (± 1.47) %

Question: What about the “RTISSUE/PLASMA% (mean ± SEM)” value (Frontal cortex, 0.1% F68 + 15.7 nM pent) of the same substance?
Answer: 11.91 (± 1.35) %

Question: What about the “RTISSUE/PLASMA% (mean ± SEM)” value (Frontal cortex, 0.5% F68 + 15.7 nM pent) of the same substance?
Answer: 17.54 (± 3.58) %

Question: And the “RTISSUE/PLASMA% (mean ± SEM)” value (Frontal cortex, Control (15.7 nM pent))?
Answer: 10.35 (± 0.84) %

Question: What about the “RTISSUE/PLASMA% (mean ± SEM)” value (Hippocampus, 0.01% F68 + 15.7 nM pent) of the same substance?
Answer: 6.05 (± 1.20) %

Question: What about the “RTISSUE/PLASMA% (mean ± SEM)” value (Hippocampus, 0.1% F68 + 15.7 nM pent) of the same substance?
Answer: 7.93 (± 1.20) %

Question: And the “RTISSUE/PLASMA% (mean ± SEM)” value (Hippocampus, 0.5% F68 + 15.7 nM pent)?
Answer: 10.65 (± 2.55) %

Question: And the “RTISSUE/PLASMA% (mean ± SEM)” value (Hippocampus, Control (15.7 nM pent))?
Answer: 8.19 (± 0.30) %

Question: What about the “RTISSUE/PLASMA% (mean ± SEM)” value (Homogenate (capillary depletion), 0.01% F68 + 15.7 nM pent) of the same substance?
Answer: 9.63 (± 0.93) %

Question: And the “RTISSUE/PLASMA% (mean ± SEM)” value (Homogenate (capillary depletion), 0.1% F68 + 15.7 nM pent)?
Answer: 11.19 (± 1.62) %

Question: And the “RTISSUE/PLASMA% (mean ± SEM)” value (Homogenate (capillary depletion), 0.5% F68 + 15.7 nM pent)?
Answer: 14.45 (± 3.93) %

Question: What about the “RTISSUE/PLASMA% (mean ± SEM)” value (Homogenate (capillary depletion), Control (15.7 nM pent)) of the same substance?
Answer: 10.18 (± 0.92) %

Question: And the “RTISSUE/PLASMA% (mean ± SEM)” value (Hypothalamus, 0.01% F68 + 15.7 nM pent)?
Answer: 8.90 (± 1.42) %

Question: What about the “RTISSUE/PLASMA% (mean ± SEM)” value (Hypothalamus, 0.1% F68 + 15.7 nM pent) of the same substance?
Answer: 11.17 (± 1.42) %

Question: And the “RTISSUE/PLASMA% (mean ± SEM)” value (Hypothalamus, 0.5% F68 + 15.7 nM pent)?
Answer: 18.73 (± 4.67) %

Question: What about the “RTISSUE/PLASMA% (mean ± SEM)” value (Hypothalamus, Control (15.7 nM pent)) of the same substance?
Answer: 18.49 (± 4.17) %

Question: And the “RTISSUE/PLASMA% (mean ± SEM)” value (Occipital cortex, 0.01% F68 + 15.7 nM pent)?
Answer: 8.80 (± 1.47) %

Question: And the “RTISSUE/PLASMA% (mean ± SEM)” value (Occipital cortex, 0.1% F68 + 15.7 nM pent)?
Answer: 12.14 (± 1.62) %

Question: What about the “RTISSUE/PLASMA% (mean ± SEM)” value (Occipital cortex, 0.5% F68 + 15.7 nM pent) of the same substance?
Answer: 15.85 (± 2.71) %

Question: What about the “RTISSUE/PLASMA% (mean ± SEM)” value (Occipital cortex, Control (15.7 nM pent)) of the same substance?
Answer: 9.52 (± 1.08) %

Question: What about the “RTISSUE/PLASMA% (mean ± SEM)” value (Pellet (capillary depletion), 0.01% F68 + 15.7 nM pent) of the same substance?
Answer: 18.16 (± 2.79) %

Question: What about the “RTISSUE/PLASMA% (mean ± SEM)” value (Pellet (capillary depletion), 0.1% F68 + 15.7 nM pent) of the same substance?
Answer: 22.15 (± 4.44) %

Question: And the “RTISSUE/PLASMA% (mean ± SEM)” value (Pellet (capillary depletion), Control (15.7 nM pent))?
Answer: 16.45 (± 2.76) %

Question: What about the “RTISSUE/PLASMA% (mean ± SEM)” value (Pineal gland, 0.01% F68 + 15.7 nM pent) of the same substance?
Answer: 341.30 (± 39.57) %

Question: And the “RTISSUE/PLASMA% (mean ± SEM)” value (Pineal gland, 0.1% F68 + 15.7 nM pent)?
Answer: 342.95 (± 92.02) %

Question: And the “RTISSUE/PLASMA% (mean ± SEM)” value (Pineal gland, 0.5% F68 + 15.7 nM pent)?
Answer: 525.94 (± 122.85) %

Question: And the “RTISSUE/PLASMA% (mean ± SEM)” value (Pineal gland, Control (15.7 nM pent))?
Answer: 664.25 (± 82.42) %

Question: And the “RTISSUE/PLASMA% (mean ± SEM)” value (Pituitary gland, 0.01% F68 + 15.7 nM pent)?
Answer: 324.42 (± 44.06) %

Question: And the “RTISSUE/PLASMA% (mean ± SEM)” value (Pituitary gland, 0.1% F68 + 15.7 nM pent)?
Answer: 434.10 (± 59.56) %

Question: What about the “RTISSUE/PLASMA% (mean ± SEM)” value (Pituitary gland, 0.5% F68 + 15.7 nM pent) of the same substance?
Answer: 881.90 (± 170.25) %

Question: And the “RTISSUE/PLASMA% (mean ± SEM)” value (Pituitary gland, Control (15.7 nM pent))?
Answer: 394.51 (± 52.42) %

Question: What about the “RTISSUE/PLASMA% (mean ± SEM)” value (Pons, 0.01% F68 + 15.7 nM pent) of the same substance?
Answer: 17.61 (± 3.70) %

Question: What about the “RTISSUE/PLASMA% (mean ± SEM)” value (Pons, 0.1% F68 + 15.7 nM pent) of the same substance?
Answer: 20.36 (± 3.70) %

Question: What about the “RTISSUE/PLASMA% (mean ± SEM)” value (Pons, 0.5% F68 + 15.7 nM pent) of the same substance?
Answer: 20.43 (± 5.67) %

Question: And the “RTISSUE/PLASMA% (mean ± SEM)” value (Pons, Control (15.7 nM pent))?
Answer: 15.16 (± 1.48) %

Question: And the “RTISSUE/PLASMA% (mean ± SEM)” value (Supernatant (capillary depletion), 0.01% F68 + 15.7 nM pent)?
Answer: 3.77 (± 0.94) %

Question: What about the “RTISSUE/PLASMA% (mean ± SEM)” value (Supernatant (capillary depletion), 0.1% F68 + 15.7 nM pent) of the same substance?
Answer: 6.63 (± 0.52) %

Question: And the “RTISSUE/PLASMA% (mean ± SEM)” value (Supernatant (capillary depletion), 0.5% F68 + 15.7 nM pent)?
Answer: 6.45 (± 1.35) %

Question: What about the “RTISSUE/PLASMA% (mean ± SEM)” value (Supernatant (capillary depletion), Control (15.7 nM pent)) of the same substance?
Answer: 5.54 (± 0.37) %

Question: What about the “RTISSUE/PLASMA% (mean ± SEM)” value (Thalamus, 0.01% F68 + 15.7 nM pent) of the same substance?
Answer: 7.99 (± 1.06) %

Question: And the “RTISSUE/PLASMA% (mean ± SEM)” value (Thalamus, 0.1% F68 + 15.7 nM pent)?
Answer: 11.08 (± 1.06) %

Question: What about the “RTISSUE/PLASMA% (mean ± SEM)” value (Thalamus, 0.5% F68 + 15.7 nM pent) of the same substance?
Answer: 13.52 (± 3.10) %

Question: And the “RTISSUE/PLASMA% (mean ± SEM)” value (Thalamus, Control (15.7 nM pent))?
Answer: 9.94 (± 1.95) %
